Test system: ER-alpha MCF7
Test: ER-alpha MCF7 HCS EC50; stated as measured by in vitro cell proliferation assays of Examples 902 and 903
Type: cell-based
Details: Homo sapiens, MCF7, MCF7 cells; Table 2
In short: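 MCF7 cells seeded 1000-2000 cells/well for 16 h, then treated with nine-point 1:2 DMSO dilution series in quadruplicate at 37 °C, 5% CO2 for 4 days. Viable cells quantified by CellTiter-Glo ATP luminescence; EC50 calculated. Controls: fulvestrant at final 100 nM, DMSO 0.2% v/v.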

SMILES	EC50
C[C@@H]1Cc2c([nH]c3ccccc23)[C@@H](c2c(F)cc(OC3CN(CCCF)C3)cc2F)N1C[C@@H](C)O [Example 264, (R)-1-((1R,3R)-1-(2,6-difluoro-4-((1-(3-fluoropropyl)azetidin-3-yl)oxy)phenyl)-3-methyl-1,3,4,9-tetrahydro-2H-pyrido[3,4-b]indol-2-yl)propan-2-ol]	0.969 nM
C[C@@H]1Cc2c([nH]c3ccccc23)[C@@H](c2c(F)cc(OCCN3CC(CCl)C3)cc2F)N1CC(C)(C)F [Example 265, (1R,3R)-1-[4-[2-[3-(chloromethyl)azetidin-1-yl]ethoxy]-2,6-difluoro-phenyl]-2-(2-fluoro-2-methyl-propyl)-3-methyl-1,3,4,9-tetrahydropyrido[3,4-b]indole]	1.7 nM
C[C@@H]1Cc2c([nH]c3ccccc23)[C@@H](c2ccc(OC3CN(CCCF)C3)c(Cl)c2)N1CC(C)(C)F [Example 266, (1R,3R)-1-[3-chloro-4-[1-(3-fluoropropyl)azetidin-3-yl]oxy-phenyl]-2-(2-fluoro-2-methyl-propyl)-3-methyl-1,3,4,9-tetrahydropyrido[3,4-b]indole]	10 nM
C[C@@H]1Cc2c([nH]c3ccccc23)[C@@H](c2ccc(OC3CN(CCCF)C3)c(F)c2)N1CC(C)(C)F [Example 267, (1R,3R)-1-[3-fluoro-4-[1-(3-fluoropropyl)azetidin-3-yl]oxy-phenyl]-2-(2-fluoro-2-methyl-propyl)-3-methyl-1,3,4,9-tetrahydropyrido[3,4-b]indole]	0.744 nM
C[C@@H]1Cc2c([nH]c3ccccc23)[C@@H](c2c(F)cc(OCCN3CC(CF)C3)cc2F)N1C[C@@H](O)CO [Example 268, (2R)-3-[(1R,3R)-1-[2,6-difluoro-4-[2-[3-(fluoromethyl)azetidin-1-yl]ethoxy]phenyl]-3-methyl-1,3,4,9-tetrahydropyrido[3,4-b]indol-2-yl]propane-1,2-diol]	8 nM
C[C@@H]1Cc2c([nH]c3ccccc23)[C@@H](c2c(F)cc(OC3CN(C[C@@H]4C[C@H]4F)C3)cc2F)N1CC(C)(C)F [Example 269, (1R,3R)-1-[2,6-difluoro-4-[1-[[(1S,2R)-2-fluorocyclopropyl]methyl]azetidin-3-yl]oxy-phenyl]-2-(2-fluoro-2-methyl-propyl)-3-methyl-1,3,4,9-tetrahydropyrido[3,4-b]indole]	1 nM
C[C@H](CF)CN1[C@H](c2c(F)cc(OCCN3CC(CF)C3)cc2F)c2[nH]c3ccccc3c2C[C@H]1C [Example 270, (1R,3R)-1-(2,6-difluoro-4-(2-(3-(fluoromethyl)azetidin-1-yl)ethoxy)phenyl)-2-((S)-3-fluoro-2-methylpropyl)-3-methyl-2,3,4,9-tetrahydro-1H-pyrido[3,4-b]indole]	0.459 nM
C[C@@H]1Cc2c([nH]c3ccccc23)[C@@H](c2c(F)cc(OCCN3CC(CF)C3)cc2F)N1C[C@](C)(O)CO [Example 271, (S)-3-((1R,3R)-1-(2,6-difluoro-4-(2-(3-(fluoromethyl)azetidin-1-yl)ethoxy)phenyl)-3-methyl-1,3,4,9-tetrahydro-2H-pyrido[3,4-b]indol-2-yl)-2-methylpropane-1,2-diol]	5 nM
C[C@@H]1Cc2c([nH]c3ccccc23)[C@@H](c2c(F)cc(OC3CN(CCCF)C3)cc2F)N1CC(C)(C)CF [Example 272, (1R,3R)-1-[2,6-difluoro-4-[1-(3-fluoropropyl)azetidin-3-yl]oxy-phenyl]-2-(3-fluoro-2,2-dimethyl-propyl)-3-methyl-1,3,4,9-tetrahydropyrido[3,4-b]indole]	0.685 nM
C[C@@H]1Cc2c([nH]c3ccccc23)[C@@H](c2ccc(OCCN3CC(CF)C3)cc2F)N1C[C@@](C)(F)CO [Example 273, (R)-2-fluoro-3-((1R,3R)-1-(2-fluoro-4-(2-(3-(fluoromethyl)azetidin-1-yl)ethoxy)phenyl)-3-methyl-1,3,4,9-tetrahydro-2H-pyrido[3,4-b]indol-2-yl)-2-methylpropan-1-ol]	0.28 nM
C[C@@H]1Cc2c([nH]c3ccccc23)[C@@H](c2ccc(OCCN3CC(CF)C3)cc2F)N1C[C@](C)(F)CO [Example 274, (S)-2-fluoro-3-((1R,3R)-1-(2-fluoro-4-(2-(3-(fluoromethyl)azetidin-1-yl)ethoxy)phenyl)-3-methyl-1,3,4,9-tetrahydro-2H-pyrido[3,4-b]indol-2-yl)-2-methylpropan-1-ol]	0.253 nM
C[C@@H]1Cc2c([nH]c3ccccc23)[C@@H](c2ccc(OCCN3CC(CF)C3)cc2)N1C[C@@](C)(F)CO [Example 275, (R)-2-fluoro-3-((1R,3R)-1-(4-(2-(3-(fluoromethyl)azetidin-1-yl)ethoxy)phenyl)-3-methyl-1,3,4,9-tetrahydro-2H-pyrido[3,4-b]indol-2-yl)-2-methylpropan-1-ol]	0.166 nM
C[C@@H]1Cc2c([nH]c3ccccc23)[C@@H](c2ccc(OCCN3CC(CF)C3)cc2)N1C[C@](C)(F)CO [Example 276, (S)-2-fluoro-3-((1R,3R)-1-(4-(2-(3-(fluoromethyl)azetidin-1-yl)ethoxy)phenyl)-3-methyl-1,3,4,9-tetrahydro-2H-pyrido[3,4-b]indol-2-yl)-2-methylpropan-1-ol]	0.309 nM
C[C@@H]1Cc2c([nH]c3ccccc23)[C@@H](c2c(F)cc(OC3CN(CCCF)C3)cc2F)N1CC(F)(F)F [Example 277, (1R,3R)-1-[2,6-difluoro-4-[1-(3-fluoropropyl)azetidin-3-yl]oxy-phenyl]-3-methyl-2-(2,2,2-trifluoroethyl)-1,3,4,9-tetrahydropyrido[3,4-b]indole]	0.09 nM
C[C@@H]1Cc2c([nH]c3ccccc23)[C@@H](c2c(F)cc(OCCN3CC(CF)C3)cc2F)N1C[C@@](C)(O)CO [Example 278, (2R)-3-[(1R,3R)-1-[2,6-difluoro-4-[2-[3-(fluoromethyl)azetidin-1-yl]ethoxy]phenyl]-3-methyl-1,3,4,9-tetrahydropyrido[3,4-b]indol-2-yl]-2-methyl-propane-1,2-diol]	0.31 nM
C[C@@H]1Cc2c([nH]c3ccccc23)[C@@H](c2ccc(OCCN3CC(CF)C3)c(F)c2)N1CC(C)(C)F [Example 279, (1R,3R)-2-(2-fluoro-2-methylpropyl)-1-(3-fluoro-4-(2-(3-(fluoromethyl)azetidin-1-yl)ethoxy)phenyl)-3-methyl-2,3,4,9-tetrahydro-1H-pyrido[3,4-b]indole]	0.16 nM
C[C@@H]1Cc2c([nH]c3ccccc23)[C@H](c2ccc(OCCN3CC(CF)C3)c(F)c2)N1CC(C)(C)F [Example 280, (1S,3R)-2-(2-fluoro-2-methylpropyl)-1-(3-fluoro-4-(2-(3-(fluoromethyl)azetidin-1-yl)ethoxy)phenyl)-3-methyl-2,3,4,9-tetrahydro-1H-pyrido[3,4-b]indole]	6 nM
C[C@@H]1Cc2c([nH]c3ccccc23)[C@@H](c2ccc(OCCN3CC(CF)C3)c(F)c2F)N1CC(C)(C)F [Example 281, (1R,3R)-1-(2,3-difluoro-4-(2-(3-(fluoromethyl)azetidin-1-yl)ethoxy)phenyl)-2-(2-fluoro-2-methylpropyl)-3-methyl-2,3,4,9-tetrahydro-1H-pyrido[3,4-b]indole]	0.183 nM

Source: US20250114338A1, “TETRAHYDRO-PYRIDO[3,4-b]INDOLE ESTROGEN RECEPTOR MODULATORS AND USES THEREOF” (Genentech, Inc., priority 2014, published 2025)
